Test results reported in patent US20250090461A1, “CELL-WALL BINDING PROTEIN SPECIFICALLY TARGETING CUTIBACTERIUM ACNES” (MASSACHUSETTS INSTITUTE OF TECHNOLOGY, priority 2022, published 2025).

How the values were obtained:
Cutibacterium acnes [1] = assay: Minimum Inhibitory Concentration of benzoyl peroxide on C. acnes; assay type: cell-based; details: OTC product containing 10% BPO used; FIG. 4
Source text: An OTC product containing 10% BPO was used in this experiment.
The advantage of SmartArrow is that it will deliver the active ingredients to where the bacteria reside. As a result, a much lower dosage of bioactive can be loaded in SmartArrow to achieve high killing of the bacteria compared to untargeted liposomes. As little as 0.002% BPO can achieve total killing of C. acnes (FIG. 4). Considering the BPO concentrations found in the retail market ranges from 2.5%-10%, which is ˜1000-fold higher than what is needed to kill the bacteria, it is not surprising to find most users of these retail products routinely suffer several side effects such as dry peeling skin. By using the SmartArrow approach, we can conservatively load 0.02% BPO into a liposome, which is 100× less than the retail products, to achieve total bacterial killing and reducing the side effects to a minimum.

Cutibacterium acnes [2] = assay: Confocal microscopy binding of EGFP-tagged lysin to C. acnes; details: 2.5 mg/ml; four C. acnes strains (6919, 11828, 11827, HC038-PAI); FIG. 1
Procedure: (§1) To check the binding spectrum of the engineered lysin SmartNovaC, 2.5 mg/ml of SmartNovaC was applied against four C. acnes strains, Enterococcus faecalis strain OG1 RF, Staphylococcus epidermidis strain PCI1200 and Pseudomonas aeruginosa strain PA14. Since SmartNovaC was cloned in a plasmid that would co-express the EGFP tag, the fluorescent lysin can be visualized using confocal microscopy.
To further examine whether SmartNovaC is the only lysin that binds specifically to C. acnes, the binding of NovaC and another lysin DukeC2Rap that were synthesized with EGFP co-expressed were tested. DukeC2Rap lysin was obtained as CBD of Doucette lysin targeting Propionibacterium freudenreichii species, which is from the same genus as C. acnes. The nucleotide and amino acid sequences of the DukeC2Rap are provided below.
NovaC and DukeC2Rap at concentrations of 2.5 mg/ml and 1.3 mg/ml, respectively, were tested for binding against two C. acnes strains.

[3] = tested on: Enterococcus faecalis strain OG1 RF; assay: Confocal microscopy binding of EGFP-tagged lysin to E. faecalis; details: 2.5 mg/ml; FIG. 1 E1-3
Procedure: as §1

[4] = tested on: Pseudomonas aeruginosa strain PA14; assay: Confocal microscopy binding of EGFP-tagged lysin to P. aeruginosa; details: 2.5 mg/ml; FIG. 1 F1-3
Procedure: as §1

[5] = tested on: Staphylococcus epidermidis strain PCI1200; assay: Confocal microscopy binding of EGFP-tagged lysin to S. epidermidis; details: 2.5 mg/ml; FIG. 1 G1-3
Procedure: as §1

Compound: O=C(OOC(=O)c1ccccc1)c1ccccc1 [BPO, benzoyl peroxide]
- BPO concentration achieving total killing of C. acnes (MIC) (Cutibacterium acnes [1]): 0.002%

Compound: SmartNovaC (GSVNKLHHDVGVVQVQNGDLSKRVDALSWV)
- binding to C. acnes (green fluorescence) (Cutibacterium acnes [2]): specific binding
- binding to E. faecalis OG1RF [3]: could not bind
- binding to P. aeruginosa PA14 [4]: could not bind
- binding to S. epidermidis [5]: could not bind
